Measurements from patent US20110053833A1, “SYNTHETIC PEPTIDES AND THEIR USE” (priority 2007, published 2011).

Tests used:
Type in all cases: cell-based
E. coli = experiment: Microbicidal activity, peptides incubated with E. coli for 2 h in BP; details: 2 h incubation in BP; two fold dilution steps starting at 100 μg/ml
Procedure: (§1) The peptides were incubated with E. coli, S. aureus or C. albicans for 2 h in BP. The peptides were diluted in two fold steps starting at 100 μg/ml or 200 μg/ml (C. albicans).

S. aureus = experiment: Microbicidal activity, peptides incubated with S. aureus for 2 h in BP; details: 2 h incubation in BP; two fold dilution steps starting at 100 μg/ml
Procedure: as §1

C. albicans = experiment: Microbicidal activity, peptides incubated with C. albicans for 2 h in BP; details: 2 h incubation in BP; two fold dilution steps starting at 200 μg/ml
Procedure: as §1

[1] = tested on: E. coli, S. aureus or C. albicans; experiment: Microbicidal activity, overall comparison with native hLF-derived peptide; details: versus HLBD1
Procedure: as §1

Substance | MMC99% E. coli (E. coli) | MMC99% S. aureus (S. aureus) | MMC99% C. albicans (C. albicans) | microbicidal activity compared with the corresponding peptide derived from the sequence of native hLF [1]
EATKCFQWQRNMRKVRGPPVSCIKR (EATKCFQWQRNMRKVRGPPVSCIKR; a fragment of human lactoferrin corresponding to aa 16-40 wherein two aa has been substituted) [HLBD1, reference compound] | 50 µg/mL | 50 µg/mL | 200 µg/mL | 
EATKCFQWKRNMRKVRGPPVSCIKR (EATKCFQWKRNMRKVRGPPVSCIKR; a fragment of human lactoferrin corresponding to aa 16-40 wherein one aa has been substituted) [HLBD1Q24K, synthetic peptide according to the present invention] | 12 µg/mL | 25 µg/mL | 50 µg/mL | considerably higher
